The values that follow come from patent US12630565B2, “DNA-dependent protein kinase inhibitor” (DIZAL (JIANGSU) PHARMACEUTICAL CO., LTD., priority 2019, dated 2026).

By IC50 is commonly meant the concentration that gives 50% inhibition. Low readings indicate higher potency, high ones lower potency. What is called microsomal CLint is the rate of metabolic loss divided by the concentration.

Molecules are shown by their SMILES.

Data set [1] concerns the target Full length human DNAPK protein (Homo sapiens, UniProt P78527). In words: DNA-PK enzymatic assay (TR-FRET). The data set is classed as biochemical. The note with it: 10 μM ATP, 1.6 μM peptide substrate. On the technique in general: TR-FRET usually uses a lanthanide donor and a delayed reading to cut background.
Data set [2] is described as follows: Metabolic stability assay (human microsomal Clint). The data set is classed as in vitro ADME. The note with it: 1 mg/mL microsomes, 1 mM NADPH, 37° C.; for microsomal CLint at 1 μM: human, pooled human liver microsomes, pH 7.4, 1 μM compound; for Human liver microsomal CLint: 1 μM compound. Here is the method: 1 μM compound was incubated with 1 mg/mL of microsomes (Pooled HLM with 20 mg/ml protein cone) at 37° C. in 250 μL of buffer (100 mM phosphate buffer, pH-7.4) containing 1 mM NADPH solution. 20 μL of incubation mix was quenched with 5 volumes chilled acetonitrile at different time points 0, 0.5, 5, 10, 15, 20 and 30 min in a fresh 96 well plate. The quench plate was centrifuged at 4000 rpm for 15 min. 40 μL of supernatant was diluted to 200 μL with pure water and analyzed using LC-MS/MS.
In vitro intrinsic clearance of the drugs in the microsome CLint (μl/min/mg) was calculated in the similar manner as the CLint in the hepatocyte.
(Liver microsomes are a subcellular fraction often used to study metabolism.)

The test system of the next data set is Rat hepatocyte. In words: Metabolic stability assay (rat hepatocyte Clint). The data set is classed as in vitro ADME. The note with it: 1 μM compound, cryopreserved hepatocytes 1 million cells per mL. Here is the method:
Viability of cryopreserved hepatocytes was determined using trypan blue and the cell conc. was adjusted to […] with buffer. 1 μM compound (in Acetonitrile; 0.01% DMSO) was incubated with 250 μL of hepatocytecells (1 million cells per mL) in a 96 deep well plate. Reaction was stopped at different time points (0, 0.5, 5, 15, 30, 45, 60, 80, 100 and 120 min) by addition of 3 volumes of chilled acetonitrile to 20 μL of reaction mixture and centrifuged at 4° C. for 15 min. 40 μL of supernatant was diluted to 200 μL with pure water and analyzed using LC-MS/MS.
In vitro hepatocyte clearance was estimated based on determination of elimination half-life (T1/2) of compounds disappearance from their initial concentrations. Peak area ratios of each compound (test or control) to IS was calculated. Drug elimination rate constant k (min−1), T1/2 (min), and in vitro intrinsic clearance CLint (μL/min/E6) was calculated according to the following equations: […]
Where Chep (cells×μL^−1) is the cell concentration in the incubation system.

A further data set deals with MDR1, BCRP. In words: MDCKII-MDR1-BCRP efflux assay. The note with it: dog, pH 7.4, 5 μM compound, HBSS pH 7.4, read-out: MDCK-Mdr1-BCRP efflux ratio. The class given is in vitro ADME. Here is the method: The apical-to-basolateral (A-B) and basolateral-to-apical (B-A) transport of compound in HBSS (25 mM HEPES, pH 7.4) was measured across MDCKII-MDR1-BCRP cell monolayers. Incubations were performed at approximately 37° C. for 120 min, with functionality of the test system being confirmed using 5 μM digoxin as a positive control substrate. Transport of 5 μM compound and control compound were determined by quantifying substrate concentration in the incubation medium of donor compartment at the beginning of the incubation period, and both donor and receiver compartments at the end of the incubation period. The data was used to calculate the apparent permeability (Papp). All incubations were performed in triplicate and integrity of the cell monolayers was confirmed using the marker Lucifer yellow.
The permeability coefficient Pexact (cm/s) was calculated using the equation: […]
The Pexact ratio was calculated using the equation: […]
The efflux ratio was calculated using the equation: […]
Where dCr/dt is the cumulative concentration of compound in the receiver chamber as a function of time (μM/s); Vr is the solution volume in the receiver chamber (0.1 mL on the apical side, 0.3 mL on the basolateral side); A is the surface area for the transport, i.e. 0.11 cm2 for the area of the monolayer; CO is the initial concentration in the donor chamber (μM).

In turn, `COC(C)Cn1nc(C)c2cnc(Nc3cn4ncnc4cc3C)nc21` (racemic) [Example 69, 1-(2-methoxypropyl)-3-methyl-N-(7-methyl-[1,2,4]triazolo[1,5-a]pyridin-6-yl)-1H-pyrazolo[3,4-d]pyrimidin-6-amine] gave a half-inhibitory concentration (IC50) in data set [1] of 8.8 nM. Moreover, the microsomal CLint at 1 μM in data set [2] was 13.6 µL/min/mg. Moreover, the “Rat hepatocyte CLint (μl/min/10^−6 cells)” value (“Rat hepatocyte CLint” for short) with Rat hepatocyte came out at 6.3 μl/min/10^−6 cells. Also, the efflux ratio at 120 min, 5 μM in the data set on MDR1, BCRP was found to be 3.
Take `Cc1cc2ncnn2cc1Nc1ncc2c(n1)c(C1CCOCC1C)nn2C` (single isomer, unassigned) [Example 55, 1-methyl-N-(7-methyl-[1,2,4]triazolo[1,5-a]pyridin-6-yl)-3-(3-methyltetrahydro-2H-pyran-4-yl)-1H-pyrazolo[4,3-d]pyrimidin-5-amine]: in data set [1], 2.5 nM corresponded to half-maximal inhibition (IC50).
Take `Cc1cc2ncnn2cc1Nc1ncc2c(n1)c(C1CCOCC1C)nn2C` (single isomer, unassigned) [Example 56, 1-methyl-N-(7-methyl-[1,2,4]triazolo[1,5-a]pyridin-6-yl)-3-(3-methyltetrahydro-2H-pyran-4-yl)-1H-pyrazolo[4,3-d]pyrimidin-5-amine]: the IC50 in data set [1] worked out at 1.1 nM.
As for `CCC(C)n1nc(C)c2cnc(Nc3cn4ncnc4cc3C)nc21` (single isomer, unassigned) [Example 61, 1-(sec-butyl)-3-methyl-N-(7-methyl-[1,2,4]triazolo[1,5-a]pyridin-6-yl)-1H-pyrazolo[3,4-d]pyrimidin-6-amine], the midpoint of inhibition in data set [1], the IC50, lay at 3.5 nM. In addition, in data set [2], the microsomal CLint at 1 μM is 34.5 µL/min/mg. In addition, the “Rat hepatocyte CLint” value with Rat hepatocyte worked out at 5.2 μl/min/10^−6 cells.
In turn, `CCC(C)n1nc(C)c2cnc(Nc3cn4ncnc4cc3C)nc21` (single isomer, unassigned) [Example 62, 1-(sec-butyl)-3-methyl-N-(7-methyl-[1,2,4]triazolo[1,5-a]pyridin-6-yl)-1H-pyrazolo[3,4-d]pyrimidin-6-amine] yielded an IC50 in data set [1] of 5.1 nM. The “Human liver microsomal CLint” value in data set [2] worked out at 42.4 µL/min/mg. Also, the “Rat hepatocyte CLint” value with Rat hepatocyte worked out at 11.7 μl/min/10^−6 cells.
Turning to `COCCC(C)n1nc(C)c2cnc(Nc3cn4ncnc4cc3C)nc21` (single isomer, unassigned) [Example 67, 1-(4-methoxybutan-2-yl)-3-methyl-N-(7-methyl-[1,2,4]triazolo[1,5-a]pyridin-6-yl)-1H-pyrazolo[3,4-d]pyrimidin-6-amine], the IC50 in data set [1] came to 27 nM. In data set [2], this compound had a microsomal CLint at 1 μM of 104 µL/min/mg. Further, in the data set with Rat hepatocyte, the “Rat hepatocyte CLint” value came out at 8.3 μl/min/10^−6 cells.
`COCCC(C)n1nc(C)c2cnc(Nc3cn4ncnc4cc3C)nc21` (single isomer, unassigned) [Example 68, 1-(4-methoxybutan-2-yl)-3-methyl-N-(7-methyl-[1,2,4]triazolo[1,5-a]pyridin-6-yl)-1H-pyrazolo[3,4-d]pyrimidin-6-amine] yielded an IC50 in data set [1] of 65.3 nM. Also, in data set [2], the “Human liver microsomal CLint” value stood at 201.9 µL/min/mg. In addition, the “Rat hepatocyte CLint” value in the data set on Rat hepatocyte is 37.0 μl/min/10^−6 cells.
In turn, `COC(C)Cn1nc(C)c2cnc(Nc3cn4ncnc4cc3C)nc21` (single isomer, unassigned) [Example 70, 1-(2-methoxypropyl)-3-methyl-N-(7-methyl-[1,2,4]triazolo[1,5-a]pyridin-6-yl)-1H-pyrazolo[3,4-d]pyrimidin-6-amine] displayed an IC50 in data set [1] of 4.3 nM.
Turning to `COC(C)Cn1nc(C)c2cnc(Nc3cn4ncnc4cc3C)nc21` (single isomer, unassigned) [Example 71, 1-(2-methoxypropyl)-3-methyl-N-(7-methyl-[1,2,4]triazolo[1,5-a]pyridin-6-yl)-1H-pyrazolo[3,4-d]pyrimidin-6-amine], in data set [1], it took 6.4 nM to reach half-maximal inhibition (IC50).
In the case of `Cc1cc2nccn2cc1Nc1ncc2c(C)nn(C3CCC(F)(F)CC3)c2n1` [Example 22, 1-(4,4-difluorocyclohexyl)-3-methyl-N-(7-methylimidazo[1,2-a]pyridin-6-yl)-1H-pyrazolo[3,4-d]pyrimidin-6-amine], in data set [1], half-maximal inhibition (IC50) required 1.3 nM. In data set [2], this compound had a microsomal CLint at 1 μM of 115 µL/min/mg. Moreover, the “Rat hepatocyte CLint” value with Rat hepatocyte turned out to be 40.9 μl/min/10^−6 cells.
On the same counts, the results for `Cc1cc2ncnn2cc1Nc1ncc2c(C)nn([C@H]3CC[C@@H](F)CC3)c2n1` [Example 27, 1-((1s,4s)-4-fluorocyclohexyl)-3-methyl-N-(7-methyl-[1,2,4]triazolo[1,5-a]pyridin-6-yl)-1H-pyrazolo[3,4-d]pyrimidin-6-amine] are 1 nM, 41.4 µL/min/mg and 10.8 μl/min/10^−6 cells.
`Cc1cc2ncnn2cc1Nc1ncc2c(C)nn([C@H]3CC[C@H](F)CC3)c2n1` [Example 28, 1-((1r,4r)-4-fluorocyclohexyl)-3-methyl-N-(7-methyl-[1,2,4]triazolo[1,5-a]pyridin-6-yl)-1H-pyrazolo[3,4-d]pyrimidin-6-amine] gave an IC50 in data set [1] of 1.3 nM. In data set [2], this compound had a microsomal CLint at 1 μM of 70 µL/min/mg. For the same compound, the “Rat hepatocyte CLint” value with Rat hepatocyte worked out at 14.1 μl/min/10^−6 cells.
On the same counts, the results for `Cc1cc2ncnn2cc1Nc1ncc2c(C)nn(C3CC4(CCC4)C3)c2n1` [Example 43, 3-methyl-N-(7-methyl-[1,2,4]triazolo[1,5-a]pyridin-6-yl)-1-(spiro[3.3]heptan-2-yl)-1H-pyrazolo[3,4-d]pyrimidin-6-amine] are 1.5 nM, 173 µL/min/mg and 16.9 μl/min/10^−6 cells.
The compound `Cc1cc2ncnn2cc1Nc1ncc2c(C)nn(C3CCC3)c2n1` [Example 45, 1-cyclobutyl-3-methyl-N-(7-methyl-[1,2,4]triazolo[1,5-a]pyridin-6-yl)-1H-pyrazolo[3,4-d]pyrimidin-6-amine] had a half-maximal inhibitory concentration (IC50) in data set [1] of 4.3 nM. The same compound returned an intrinsic metabolic clearance (microsomal CLint) at 1 μM in data set [2] of 70 µL/min/mg. For the same compound, the “Rat hepatocyte CLint” value in the data set on Rat hepatocyte came to 64.0 μl/min/10^−6 cells.
On the same counts, the results for `Cc1cc2ncnn2cc1Nc1ncc2c(C)nn(CC3CCC3)c2n1` [Example 46, 1-(cyclobutylmethyl)-3-methyl-N-(7-methyl-[1,2,4]triazolo[1,5-a]pyridin-6-yl)-1H-pyrazolo[3,4-d]pyrimidin-6-amine] are 3.3 nM, 105 µL/min/mg and 60.9 μl/min/10^−6 cells.
Turning to `Cc1cc2ncnn2cc1Nc1ncc2c(C)nn(C3CCCC3)c2n1` [Example 47, 1-cyclopentyl-3-methyl-N-(7-methyl-[1,2,4]triazolo[1,5-a]pyridin-6-yl)-1H-pyrazolo[3,4-d]pyrimidin-6-amine], the midpoint of inhibition in data set [1], the IC50, lay at 1.7 nM. In data set [2], this compound displayed a microsomal CLint at 1 μM of 89.7 µL/min/mg. Moreover, in the data set with Rat hepatocyte, the “Rat hepatocyte CLint” value is 43.3 μl/min/10^−6 cells.
As for `COC1CC2(C1)CC(n1nc(C)c3cnc(Nc4cn5ncnc5cc4C)nc31)C2` (stereo not shown) [Example 54, 1-(6-methoxyspiro[3.3]heptan-2-yl)-3-methyl-N-(7-methyl-[1,2,4]triazolo[1,5-a]pyridin-6-yl)-1H-pyrazolo[3,4-d]pyrimidin-6-amine], in data set [1], the IC50 was 1.5 nM.
As to `Cc1cc2ncnn2cc1Nc1ncc2c(C)nn(CCOC(F)(F)F)c2n1` [Example 64, 3-methyl-N-(7-methyl-[1,2,4]triazolo[1,5-a]pyridin-6-yl)-1-(2-(trifluoromethoxy)ethyl)-1H-pyrazolo[3,4-d]pyrimidin-6-amine], the IC50 in data set [1] came to 3.6 nM. This compound also displayed an intrinsic clearance (microsomal CLint) at 1 μM in data set [2] of 50.8 µL/min/mg. Moreover, the “Rat hepatocyte CLint” value with Rat hepatocyte is 38.6 μl/min/10^−6 cells.
`Cc1cc2nccn2cc1Nc1ncc2c(C)nn(-c3ccc(C#N)cc3)c2n1` [Example 73, 4-(3-methyl-6-((7-methylimidazo[1,2-a]pyridin-6-yl)amino)-1H-pyrazolo[3,4-d]pyrimidin-1-yl)benzonitrile] registered an IC50 in data set [1] of 1.3 nM.
